Measurements from patent US7892581B2, “Compositions and methods for protection of harvested fruits from decay” (Gavish-Galilee Bio Applications Ltd., priority 2005, dated 2011).

Test: Release profile of marker components into vapor phase (headspace GC)
Type: physicochemical
Conditions: for Concentration in the vapor phase: Thyme oil, within 3 hours; for Time to saturation of the vapor phase: release from essential oil on filter paper, sealed vial, 20° C.
Description: The profile of release of essential oils was determined by analyses using Gas Chromatograph HP6890 Series GC-System (FID) coupled with HP 7694 Headspace sampler, equipped with column HP-5 Trace Analysis (5% PH Me Siloxane) of volume 30 m×0.25 mm×0.25 μm, at ambient temperature. The following model system was developed and calibrated: filter paper (Whatman No. 1) strips absorbed with appropriate volume of essential oil to achieve desired concentrations, i.e., similar to those used for in-vivo experiments, were placed in 20 ml and 100 ml vials. The vials were hermetically sealed and marked to indicate the time course of vaporization (1, 3, 14 and 24 hours). These vials were kept in the dark at a temperature of 20° C. until their gas chromatography analyses.
GC FID analysis was applied to determine the release profile into the vapor phase of marker individual components during a 24 hour period. […] For all markers tested, saturation was achieved within 3 hours.

Structure (SMILES) | Concentration in the vapor phase | Time to saturation of the vapor phase
Cc1ccc(C(C)C)c(O)c1 [thymol] | ~1.2% | 
CC(C)=CCCC(C)CC=O (stereo not shown) [citronellal] |  | ~3.0 h
C=CCN=C=S [allyl isothiocyanate] |  | ~1.5 h
Cc1ccc(C(C)C)cc1 [p-cymene] | ~56% | 
